Measurements taken from US20200237852A1, “Small Molecule Enhancers of Paneth Cell Function and Differentiation” (Massachusetts Institute of Technology, priority 2019, published 2020).

Key:
Assay type in all cases: cell-based, C57BL/6 mice
[1] = test system: mature PC (CD24-mid & LYZ+) and secretory precursor (CD24-hi) populations; experiment: Flow cytometry profiling of organoids in 2.5-D (CD24, LYZ); conditions: 6-day ENR+CD+treatment, fraction of viable cells, n=3 bio. donors
From the text: Cells processed for flow cytometry were first gated to exclude potential debris or doublets (via widely accepted forward and side scatter gating), and subsequently gated for viability (via Zombie-violet viability dye exclusion), all viable cells were considered for CD24 & LYZ expression analysis. […] For flow cytometry profiling of the 6 validate small molecules, ISC-enriched ‘small clusters’ in 3D Matrigel culture were passaged to a “2.5D” 96-well plate culture system for six days of ENR, or ENR+CD+drug culture in the same manner as described previously with the exception of plating in 96-well plates prepared with a polymerized 70% Matrigel coating in each well. Plates were centrifuged at 50 g for 1 min at 4° C. to allow for cells to partially embed in Matrigel coating. Drugs were pinned into their respective wells using the Tecan from a drug stamp plate. Media was changed at day three, including pinning of the drug treatments. At day six, cells were washed 3× with basal media, then harvested from Matrigel by mechanical disruption in TrypLE Express to remove Matrigel and dissociate organoids to single cells. After vigorous pipetting and incubation at 37° C. for 20 mins, dissociated organoids were strained through a 96-well filter plate with a 30-40 μm filter (Pall) into an ultra low-bind 96-well plate (Costar) by centrifuging at 300×g for 3 mins at 4° C. The cell filtrate was centrifuged again at 300×g for 3 mins at 4° C. to pellet the cells. Cell pellets were resuspended in FACS buffer (2% FBS in PBS0), then transferred to an ultra low-bind 96-well plate for flow prep. Cells were stained with Zombie-violet viability dye (BioLegend) at 100× for viability staining and/or antibody staining solution. FITC-conjugated antibody for lysozyme and APC-conjugated antibody for CD24 were used at 100× dilution (BioLegend). Flow cytometry was performed using a LSR Fortessa (BD; Koch Institute Flow Cytometry Core at MIT). Flow cytometry data was analyzed using FlowJo X v10.1 software.

[2] = test system: ENR+CD and ENR organoid populations; experiment: Population RNA-seq of organoids; conditions: 3 days of treatment, all media conditions controlled, FDR<0.01
From the text: To further assess the potential interaction of Wnt agonist CHIR99021 (C) and Notch inhibitor DAPT (D) with XPO1 inhibitors, we carried out an experiment where we assessed bulk organoid population transcriptomes (with RNA-seq) from multiple variations on growth media, XPO1 inhibitor, and duration of treatment (FIG. 12A). To characterize the resulting cell phenotypes, we used aggregate scores of geneset enrichment (based on module scoring as implemented in^7) from the in vivo Paneth and related enteroendocrine cell populations (genesets taken from^6). We see that again for both ENR+CD treated (FIG. 12B) and ENR treated (FIG. 12C) organoid populations, XPO1 inhibition drives enrichment in Paneth cell defining genes, principally at 3 days of treatment. […]
Population RNA-seq was performed using a derivative of the Smart-Seq2 protocol for single cells^1,2. […] Libraries were pooled post-Nextera and cleaned using Agencourt AMPure SPRI beads with successive 0.7× and 0.8× ratio SPRIs and sequenced with an Illumina 75 Cycle NextSeq500/550v2 kit (Illumina FC-404-2005) with loading density at 2.2 pM, with paired end 35 cycle read structure. Samples were sequenced at an average read depth of 8.44 million reads per sample and a total of 96 samples. […]

[3] = test system: ISC-enriched organoids in ENR+CD; experiment: 384-well secondary screen in ENR+CD incl. early vs. full treatment, secreted LYZ (LYZ.NS, LYZ.S); conditions: 6-day ENR+CD+treatment vs ENR+CD+DMSO; cutoff 0.89, 8 replicates

O=C(/C=C\n1cnc(-c2cc(C(F)(F)F)cc(C(F)(F)F)c2)n1)NNc1cnccn1 [KPT-330]
mature PC (CD24-mid & LYZ+) population relative to control [1]: statistically significant increase (adj. p<0.01)
secretory precursor (CD24-hi) population relative to control [1]: trend to a smaller population
identity of the majority of significantly up-regulated genes relative to no treatment (DESeq2) [2]: known Paneth cell lineage-defining genes
validation in secondary screen (SSMD above cutoff for both LYZ.NS and LYZ.S) [3]: multiple validated doses
